Data: US11944614B2, “Imidazo[4,5-c]pyridine compounds as LSD-1 inhibitors” (THE REGENTS OF THE UNIVERSITY OF MICHIGAN, priority 2018, dated 2024)

Each compound was assayed against Human recombinant LSD1 protein (Homo sapiens (Human), UniProt O60341) (assay: LSD1 enzymatic activity, AlphaLISA demethylation assay). Conditions: 4 nM LSD1, 80 nM Biotin-H3K4Me peptide substrate, 1% DMSO, 60 minutes reaction.
Type: biochemical
Experimental: Human recombinant LSD1 protein expressed in E. coli cells was purchased from Active Motif (Carlsbad, Calif.). Biotin-labeled Histone H3K4Me peptide (residues 1-21 with Lys 4 monomethylated) substrate was purchased from Anaspec (Fremont, Calif.). Enzymatic activity was assessed using the AlphaLISA technology from Perkin Elmer Life Sciences (Waltham, Mass.). 2.5 μL of compound solution and 5 μL of LSD1 solutions in the assay buffer (50 mM Tris, pH 9.0, 50 mM NaCl with 0.01% Tween20 and 1 mM DTT added right before the assay) were added into a white low volume 384 well microtiter plate. This mixture solution was incubated for 15 minutes with gentle shaking at room temperature. Demethylation reaction was initiated by adding 2.5 μL of Biotin-H3K4Me peptide substrate solution in the assay buffer. Final concentrations of LSD1, Biotin-H3K4Me peptide substrate, and DMSO were 4 nM, 80 nM, and 1%, respectively. The reaction was allowed to proceed for 60 minutes in dark with gentle shaking at room temperature, after which 5 μL of Anti-H3K4 AlphaLISA acceptor beads in detection buffer from the manufacturer was added into the reaction mixture followed by incubation for 60 minutes. 10 μL of Streptavidin labeled AlphaLISA donor beads in detection buffer was added into the mixture followed by 30-minute incubation. Final acceptor and donor beads concentrations were both at 10 μg/mL. Plates were read on a BMG CLARIOStar multimode plate reader from BMG Labtech (Ortenberg, Germany) with an excitation wavelength of 680 nm and emission wavelength of 615 nm. IC50 values of inhibitors were obtained by fitting the fluorescence intensity vs inhibitor concentrations in a sigmoidal dose-response curve (variable slope) with a non-linear regression using Prism 7 (La Jolla, Calif.).

| SMILES | IC50 [nM] |
| --- | --- |
| CN1CCC(Cn2cnc3c(-c4ccc(C#N)c(F)c4)c(-c4ccc5c(c4)OCO5)ncc32)CC1 [compound 15, 4-(6-(benzo[d][1,3]dioxol-5-yl)-3-((1-methylpiperidin-4-yl)methyl)-3H-imidazo[4,5-c]pyridin-7-yl)-2-fluorobenzonitrile] | 27.8 |
| CN1CCC(Cn2cnc3c(-c4ccc(C#N)cc4)c(-c4ccc5c(cnn5C)c4)ncc32)CC1 [compound 6, 4-(6-(1-methyl-1H-indazol-5-yl)-3-((1-methylpiperidin-4-yl)methyl)-3H-imidazo[4,5-c]pyridin-7-yl)benzonitrile] | 66.3 |
| Cn1ncc2cc(-c3ncc4c(ncn4C[C@H]4CCNC4)c3-c3ccc(C#N)cc3)ccc21 [compound 30, (S)-4-(6-(1-methyl-1H-indazol-5-yl)-3-(pyrrolidin-3-ylmethyl)-3H-imidazo[4,5-c]pyridin-7-yl)benzonitrile] | 39.8 |
| CN1CCOc2ccc(-c3ncc4c(ncn4C[C@H]4CCNC4)c3-c3ccc(C#N)c(F)c3)cc21 [compound 29, (S)-2-fluoro-4-(6-(4-methyl-3,4-dihydro-2H-benzo[b][1,4]oxazin-6-yl)-3-(pyrrolidin-3-ylmethyl)-3H-imidazo[4,5-c]pyridin-7-yl)benzonitrile] | 47 |
| CN1CCC(Cn2cnc3c(-c4ccc(C#N)cc4)c(-c4ccc5c(c4)OCCN5C)ncc32)CC1 [compound 10, 4-(6-(4-methyl-3,4-dihydro-2H-benzo[b][1,4]oxazin-7-yl)-3-((1-methylpiperidin-4-yl)methyl)-3H-imidazo[4,5-c]pyridin-7-yl)benzonitrile] | 53.1 |
| CN1CCC(Cn2cnc3c(-c4ccc(C#N)cc4)c(-c4ccc(C#N)cc4)ncc32)CC1 [compound 9, 4,4′-(3-((1-methylpiperidin-4-yl)methyl)-3H-imidazo[4,5-c]pyridine-6,7-diyl)dibenzonitrile] | > 1000 |
| CN1CCOc2cc(-c3ncc4c(ncn4CC4CCCNCC4)c3-c3ccc(C#N)c(F)c3)ccc21 (stereo not shown) [compound 23, 4-(3-(azepan-4-ylmethyl)-6-(4-methyl-3,4-dihydro-2H-benzo[b][1,4]oxazin-7-yl)-3H-imidazo[4,5-c]pyridin-7-yl)-2-fluorobenzonitrile] | 13 |
| CN1CCC(Cn2cnc3c(-c4ccc(C#N)c(F)c4)c(-c4ccc5c(cnn5C)c4)ncc32)CC1 [Cpd. No. 1, 2-fluoro-4-(6-(1-methyl-1H-indazol-5-yl)-3-((1-methylpiperidin-4-yl)methyl)-3H-imidazo[4,5-c]pyridin-7-yl)benzonitrile] | 40.1 |
| CN1CCC(Cn2cnc3c(-c4ccc(C#N)cc4)c(-c4ccc5c(c4)OCO5)ncc32)CC1 [compound 14, 4-(6-(benzo[d][1,3]dioxol-5-yl)-3-((1-methylpiperidin-4-yl)methyl)-3H-imidazo[4,5-c]pyridin-7-yl)benzonitrile] | 15.7 |
| CN1CCOc2cc(-c3ncc4c(ncn4C[C@H]4CCNC4)c3-c3ccc(C#N)c(F)c3)ccc21 [compound 17, (S)-2-fluoro-4-(6-(4-methyl-3,4-dihydro-2H-benzo[b][1,4]oxazin-7-yl)-3-(pyrrolidin-3-ylmethyl)-3H-imidazo[4,5-c]pyridin-7-yl)benzonitrile] | 12.1 |
| CN1CCOc2cc(-c3ncc4c(ncn4CC4CCCNCC4)c3-c3ccc(C#N)cc3)ccc21 (stereo not shown) [compound 24, 4-(3-(azepan-4-ylmethyl)-6-(4-methyl-3,4-dihydro-2H-benzo[b][1,4]oxazin-7-yl)-3H-imidazo[4,5-c]pyridin-7-yl)benzonitrile] | 11 |
| CN1CCC(Cn2cnc3c(-c4ccc(C#N)cc4)c(-c4ccc5nn(C)cc5c4)ncc32)CC1 [compound 13, 4-(6-(2-methyl-2H-indazol-5-yl)-3-((1-methylpiperidin-4-yl)methyl)-3H-imidazo[4,5-c]pyridin-7-yl)benzonitrile] | 115 |

More lines, in order of falling IC50, values ahead:

| IC50 [nM] | SMILES |
| --- | --- |
| 928 | Cc1nc2cc(-c3ncc4c(ncn4CC4CCN(C)CC4)c3-c3ccc(C#N)c(F)c3)ccc2s1 [compound 5, 2-fluoro-4-(6-(2-methylbenzo[d]thiazol-5-yl)-3-((1-methylpiperidin-4-yl)methyl)-3H-imidazo[4,5-c]pyridin-7-yl)benzonitrile] |
| 220 | CN1CCC(Cn2cnc3c(-c4ccc(C#N)c(F)c4)c(-c4ccc5c(c4)CC(=O)N5C)ncc32)CC1 [compound 3, 2-fluoro-4-(6-(1-methyl-2-oxoindolin-5-yl)-3-((1-methylpiperidin-4-yl)methyl)-3H-imidazo[4,5-c]pyridin-7-yl)benzonitrile] |
| 116 | CCn1ncc2cc(-c3ncc4c(ncn4CC4CCN(C)CC4)c3-c3ccc(C#N)cc3)ccc21 [compound 11, 4-(6-(1-ethyl-1H-indazol-5-yl)-3-((1-methylpiperidin-4-yl)methyl)-3H-imidazo[4,5-c]pyridin-7-yl)benzonitrile] |
| 97.6 | CN1CCC(Cn2cnc3c(-c4ccc(C#N)c(F)c4)c(-c4ccc5nn(C)cc5c4)ncc32)CC1 [compound 12, 2-fluoro-4-(6-(2-methyl-2H-indazol-5-yl)-3-((1-methylpiperidin-4-yl)methyl)-3H-imidazo[4,5-c]pyridin-7-yl)benzonitrile] |
| 87.2 | CN1CCC(Cn2cnc3c(-c4ccc(C#N)cc4)c(-c4ccc5c(cnn5C)c4)ncc32)C1 (stereo not shown) [compound 31, 4-(6-(1-methyl-1H-indazol-5-yl)-3-((1-methylpyrrolidin-3-yl)methyl)-3H-imidazo[4,5-c]pyridin-7-yl)benzonitrile] |
| 68 | CN1CCC(Cn2cnc3c(-c4ccc(C#N)cc4)c(-c4ccc5c(ccn5C)c4)ncc32)CC1 [compound 7, 4-(6-(1-methyl-1H-indol-5-yl)-3-((1-methylpiperidin-4-yl)methyl)-3H-imidazo[4,5-c]pyridin-7-yl)benzonitrile] |
| 53.3 | Cn1ccc2cc(-c3ncc4c(ncn4C[C@H]4CCNC4)c3-c3ccc(C#N)c(F)c3)cnc21 [compound 27, (S)-2-fluoro-4-(6-(1-methyl-1H-pyrrolo[2,3-b]pyridin-5-yl)-3-(pyrrolidin-3-ylmethyl)-3H-imidazo[4,5-c]pyridin-7-yl)benzonitrile] |
| 29.5 | CN1CCC(Cn2cnc3c(-c4ccc(C#N)cc4)c(-c4ccc5c(c4)OCCN5C)ncc32)C1 (stereo not shown) [compound 33, 4-(6-(4-methyl-3,4-dihydro-2H-benzo[b][1,4]oxazin-7-yl)-3-((1-methylpyrrolidin-3-yl)methyl)-3H-imidazo[4,5-c]pyridin-7-yl)benzonitrile] |
| 28 | CN1CC[C@H](Cn2cnc3c(-c4ccc(C#N)c(F)c4)c(-c4ccc5c(cnn5C)c4)ncc32)C1 [compound 16, (S)-2-fluoro-4-(6-(1-methyl-1H-indazol-5-yl)-3-((1-methylpyrrolidin-3-yl)methyl)-3H-imidazo[4,5-c]pyridin-7-yl)benzonitrile] |
| 17.3 | Cn1ncc2cc(-c3ncc4c(ncn4CC4CCCNCC4)c3-c3ccc(C#N)c(F)c3)ccc21 (stereo not shown) [compound 21, 4-(3-(azepan-4-ylmethyl)-6-(1-methyl-1H-indazol-5-yl)-3H-imidazo[4,5-c]pyridin-7-yl)-2-fluorobenzonitrile] |
| 16.2 | Cn1ncc2cc(-c3ncc4c(ncn4CC4CCCNCC4)c3-c3ccc(C#N)cc3)ccc21 (stereo not shown) [compound 22, 4-(3-(azepan-4-ylmethyl)-6-(1-methyl-1H-indazol-5-yl)-3H-imidazo[4,5-c]pyridin-7-yl)benzonitrile] |
| 16.2 | CN1CCC(Cn2cnc3c(-c4ccc(C#N)c(F)c4)c(-c4ccc5c(c4)OCCN5C)ncc32)CC1 [compound 8, 2-fluoro-4-(6-(4-methyl-3,4-dihydro-2H-benzo[b][1,4]oxazin-7-yl)-3-((1-methylpiperidin-4-yl)methyl)-3H-imidazo[4,5-c]pyridin-7-yl)benzonitrile] |
| 14.7 | CN1CCOc2cc(-c3ncc4c(ncn4CC4CCNCC4)c3-c3ccc(C#N)cc3)ccc21 [compound 26, 4-(6-(4-methyl-3,4-dihydro-2H-benzo[b][1,4]oxazin-7-yl)-3-(piperidin-4-ylmethyl)-3H-imidazo[4,5-c]pyridin-7-yl)benzonitrile] |
| 13.7 | Cn1ncc2cc(-c3ncc4c(ncn4CC4CCNCC4)c3-c3ccc(C#N)cc3)ccc21 [compound 20, 4-(6-(1-methyl-1H-indazol-5-yl)-3-(piperidin-4-ylmethyl)-3H-imidazo[4,5-c]pyridin-7-yl)benzonitrile] |
| 12 | CN1CC[C@H](Cn2cnc3c(-c4ccc(C#N)c(F)c4)c(-c4ccc5c(c4)OCCN5C)ncc32)C1 [compound 18, (S)-2-fluoro-4-(6-(4-methyl-3,4-dihydro-2H-benzo[b][1,4]oxazin-7-yl)-3-((1-methylpyrrolidin-3-yl)methyl)-3H-imidazo[4,5-c]pyridin-7-yl)benzonitrile] |
| 5.67 | CN1CCOc2cc(-c3ncc4c(ncn4CC4CCNC4)c3-c3ccc(C#N)cc3)ccc21 (stereo not shown) [compound 32, 4-(6-(4-methyl-3,4-dihydro-2H-benzo[b][1,4]oxazin-7-yl)-3-(pyrrolidin-3-ylmethyl)-3H-imidazo[4,5-c]pyridin-7-yl)benzonitrile] |
